# Ends that are not written are not given here.
# Tested on: FIV Wo isolate
# Test: Viral load in the tissues by competitive RT-PCR
# Format: in vivo, cats
# Settings: 5 weeks after the test, FIG. 4
# Description: The cats are sacrificed five weeks after the virulence test. The lymphoid organs (spleen, thymus, axial lymphatic ganglia) are recovered and frozen in liquid nitrogen, for extraction of the RNA.
# Frozen spleen and thymus tissues are reduced to powder and immediately dispersed in the lysis buffer provided with the RNA extraction kit (RNeasy, Qiagene), with the aid of a tissue homogenizer (Ultra-Turrax). The frozen axillary lymphatic ganglia are dispersed directly in the lysis buffer; the RNA is then extracted using the RNeasy kit, according to the manufacturer's instructions.
# The contaminant DNA is removed by hydrolysis with DNase 1 (RQ1. RNase-free DNase, Promega).
# The viral load in the tissues is evaluated 5 weeks after the test by counting the number of copies of viral RNA in the axillary lymphatic ganglia and in the thymus by competitive RT-PCR.
# Given that the amplified fragment (amplicon) is located in the intron of the sub-genomic viral RNA, the copies of viral RNA counted in the tissues represent the complete transcripts, which are either intracellular or encapsidated in the extracellular viral particles.
sequence,measurement,value
"KKGLQQLQEWEDWVGWIGN [TM3-19, 19-amino-acid fragment of the TM3 domain of the FIV Wo Env transmembrane glycoprotein (759-777)]",level of viral RNA in the spleen,particularly low in one cat (348)
same,levels of viral RNA in the axillary lymphatic ganglia,"lower in three cats (346, 348 and 349)"

# Reference: patent US6391304B1, “Peptides derived from the ENV gene of the feline immunodeficiency virus and their applications” (Centre National de la Recherche Scientifique, priority 1997, dated 2002)
